Patent US9227921B2, “Salts and polymorphs of a tetracycline compound” (Paratek Pharmaceuticals, Inc., priority 2008, dated 2016)

Legend:
Format in all cases: physicochemical
[1] = Temperature and moisture stability study (HPLC impurity profile)
Description: A stability study was conducted on tosylate salt and mesylate salt of Compound 1, by monitoring changes in the high performance liquid chromatography (HPLC) impurity profiles for each salt when exposed to various temperatures and/or humidity conditions. Each sample was placed in a closed container and exposed to three controlled environments: refrigerated (5° C.), 20° C. and 60% relative humidity, and 40° C. and 75% relative humidity. […] The stability study of the crystalline tosylate salt was continued.
Samples were analyzed by the following reversed-phase HPLC impurity profile method at time points 0, 1, 2, 4 weeks (Table 7) and 3 months (Table 8) for the tosylate salt; and 0, 1 and 2 weeks for the mesylate salt (Table 9).
(§1) Reversed-phase HPLC analysis was conducted using a SYMMETRY SHIELD RP18 column (4.6×250 mm, 5 µm particle size), although analysis using a similar or equivalent column would be expected to yield similar results. The mobile phase components were 0.01 M ammonium acetate in water at pH 3.3 (A) and acetonitrile (B). The mobile phase composition was a gradient that increased from 6% to 15% B in five minutes, held at 15% B for 15 minutes, increased from 15% to 60% B in ten minutes, then from 60% to 90% B in two minutes, and then the system was re-equilibrated at 6% B for four minutes. The flow rate was 1.0 mL/minute, and the injection volume was 10.0 μL. The column temperature was maintained at 30° C. Detection was by ultraviolet light (UV) at 280 nm. The retention time for Compound 1 was approximately 15.7 minutes. The sample solution was prepared in mobile phase A to a final concentration of 2.0 mg/mL.

[2] = Photostability study (HPLC impurity profile)
Description: as §1
A photostability study was conducted on the tosylate salt of Compound 1. Two samples were prepared in clear glass Petri dishes. One sample was wrapped in aluminum foil to serve as a control sample. Both samples were placed in the ES 2000 Environmental Light 10 Chamber and exposed to 12 kilolux of cool white fluorescent light for a total of 47 hours.

[3] = Solubility of crystalline tosylate salt (excess solids, HPLC of supernatant); settings: for Solubility: ambient temperature, two hours
Description: (§2) The solubilities were determined by mixing excess solids with solvent, at ambient temperature for two hours, followed by filtration of the supernatant. The supernatant concentration was determined by high-performance liquid chromatography (HPLC). […] The pH of 122.1 mg of the subject crystalline tosylate salt in 1.0 mL of water was determined to be 5.70.

[4] = Hygroscopicity by symmetric vapor sorption analyzer; settings: 95% RH, 25.0° C.
Description: The hygroscopicity of the subject crystalline tosylate salt was determined using a symmetric vapor sorption analyzer, and reported as wt % gained as a function of percent relative humidity (% RH) from 5% to 95% to 1%, at 5% intervals at 25.0° C. A maximum weight gain of 12 wt % at 95% RH, with slight hysteresis upon desorption, was observed, and a 2 wt % loss due to IPA was observed.

[5] = Water content and room temperature stability of crystalline tosylate salt
Description: Upon drying, water content in the crystalline tosylate salt of Compound 1 was calculated to be 0.5%. After standing at room temperature for 24 hours, this value increased to 5%. In contrast to the amorphous Compound 1, the crystalline tosylate salt of Compound 1 was stable for weeks and months at room temperature, maintaining a water content of approximately 5%.

[6] = pH of crystalline tosylate salt in water; settings: 122.1 mg in 1.0 mL of water
Description: as §2

[7] = Control sample wrapped in aluminum foil, 47 hours in light chamber
[8] = Exposed to 12 kilolux cool white fluorescent light, 47 hours
[9] = room temperature, weeks and months

## CN(C)c1cc(CNCC(C)(C)C)c(O)c2c1CC1CC3C(N(C)C)C(O)=C(C(N)=O)C(=O)C3(O)C(O)=C1C2=O.Cc1ccc(S(=O)(=O)O)cc1 (stereo not shown) [tosylate salt of Compound 1]
[1]; 0 month, 20° C. & 60% RH
  4-keto compound RRT = 1.57: 0.05%
  Beta-epimer RRT = 1.26: 1.76%
  Total impurity: 2.12%
[1]; 0 month, 40° C. & 75% RH
  4-keto compound RRT = 1.57: 0.05%
  Beta-epimer RRT = 1.26: 1.76%
  Total impurity: 2.12%
[1]; 1 week, 5° C.
  Compound 1: 98.5%
  RRT 0.52: 0.09%
  RRT 1.19: 0.21%
  RRT 1.26 (beta-epimer): 1.1%
  RRT 1.77: 0.11%
  Total Impurities: 1.51
[1]; 1 week, 20° C. & 60% RH
  Compound 1: 98.3%
  RRT 0.52: 0.09%
  RRT 1.19: 0.21%
  RRT 1.26 (beta-epimer): 1.2%
  RRT 1.77: 0.12%
  Total Impurities: 1.63
[1]; 1 week, 40° C. & 75% RH
  Compound 1: 98.2%
  RRT 0.52: 0.09%
  RRT 0.77: 0.05%
  RRT 1.19: 0.21%
  RRT 1.26 (beta-epimer): 1.3%
  RRT 1.77: 0.14%
  Total Impurities: 1.80
[1]; 2 weeks, 5° C.
  Compound 1: 98.4%
  RRT 0.52: 0.08%
  RRT 0.93: 0.08%
  RRT 1.19: 0.24%
  RRT 1.26 (beta-epimer): 1.1%
  RRT 1.77: 0.12%
  Total Impurities: 1.62
[1]; 2 weeks, 20° C. & 60% RH
  Compound 1: 98.4%
  RRT 0.52: 0.08%
  RRT 0.93: 0.08%
  RRT 1.19: 0.25%
  RRT 1.26 (beta-epimer): 1.1%
  RRT 1.77: 0.15%
  Total Impurities: 1.66
[1]; 2 weeks, 40° C. & 75% RH
  Compound 1: 98.3%
  RRT 0.52: 0.08%
  RRT 0.93: 0.09%
  RRT 1.19: 0.25%
  RRT 1.26 (beta-epimer): 1.1%
  RRT 1.77: 0.16%
  Total Impurities: 1.68
[1]; 3 month, 20° C. & 60% RH
  4-keto compound RRT = 1.57: 0.10%
  Beta-epimer RRT = 1.26: 1.74%
  M-2 impurity RRT = 0.84: 0.18%
  Total impurity: 2.86%
[1]; 3 month, 40° C. & 75% RH
  4-keto compound RRT = 1.57: 0.14%
  Beta-epimer RRT = 1.26: 1.66%
  M-2 impurity RRT = 0.84: 0.31%
  Total impurity: 3.12%
[1]; 4 weeks, 5° C.
  Compound 1: 98.3%
  RRT 0.52: 0.09%
  RRT 0.77: 0.08%
  RRT 0.93: 0.07%
  RRT 1.19: 0.23%
  RRT 1.26 (beta-epimer): 1.0%
  RRT 1.77: 0.14%
  Total Impurities: 1.61
[1]; 4 weeks, 20° C. & 60% RH
  Compound 1: 98.2%
  RRT 0.52: 0.10%
  RRT 0.77: 0.10%
  RRT 0.93: 0.12%
  RRT 1.19: 0.24%
  RRT 1.26 (beta-epimer): 1.1%
  RRT 1.77: 0.18%
  Total Impurities: 1.84
[1]; 4 weeks, 40° C. & 75% RH
  Compound 1: 98.1%
  RRT 0.52: 0.10%
  RRT 0.77: 0.17%
  RRT 0.93: 0.13%
  RRT 1.19: 0.26%
  RRT 1.26 (beta-epimer): 1.1%
  RRT 1.77: 0.20%
  Total Impurities: 1.96
[1]; Initial
  Compound 1: 98.4%
  RRT 0.52: 0.06%
  RRT 1.19: 0.24%
  RRT 1.26 (beta-epimer): 1.2%
  RRT 1.77: 0.10%
  Total Impurities: 1.60
[1]; after two weeks, 5° C., 20° C. & 60% RH, 40° C. & 75% RH
  relative stability among crystalline forms: most stable crystalline form
[1]; refrigerated and/or 20° C. & 60% RH, at least four weeks
  storage stability: stable
[2]; [7]
  Compound 1: 98.2%
  RRT 0.52: 0.06%
  RRT 0.77: 0.08%
  RRT 0.93: 0.12%
  RRT 1.19: 0.26%
  RRT 1.26: 1.2%
  RRT 1.77: 0.16%
[2]; [8]
  Compound 1: 98.2%
  RRT 0.52: 0.06%
  RRT 0.77: 0.09%
  RRT 0.93: 0.13%
  RRT 1.19: 0.26%
  RRT 1.26: 1.1%
  RRT 1.77: 0.16%
[3]; 56.8 mg in 0.5 mL water
  Equilibration in water (appearance): clear solutions
[3]; 122.1 mg in 1.0 mL water
  Equilibration in water (appearance): clear solutions
[3]; Acetonitrile
  Solubility: 5.9 mg/mL
[3]; IPA
  Solubility: 5.8 mg/mL
[3]; Methanol
  Solubility: 86.1 mg/mL
[3]; Water
  Solubility: >100 mg/mL
[4]
  maximum weight gain (hygroscopicity): 12 wt %
[5]; after standing at room temperature for 24 hours
  water content: 5%
[5]; [9]
  stability at room temperature: stable
  water content maintained: approximately 5%
[5]; upon drying
  water content: 0.5%
[6]
  pH: 5.70
